Columns and labels:
[1] = Stability: moisture content with respect to time in thermo-hygrostat (Karl Fisher); format: physicochemical; details: 25° C. and 60% RH, opened Petri dish
Description: To compare the stability of 10-ethoxy-8-(morpholinomethyl)-1,2,3,4-tetrahydrobenzo[h][1,6]naphthyridine-5(6H)-on dichloride dihydrate prepared in Example 1 and 10-ethoxy-8-(morpholinomethyl)-1,2,3,4-tetrahydrobenzo[h][1,6]naphthyridine-5(6H)-on dichloride anhydride prepared in Comparative Example 1, the following experiment was performed.
3.0 g of each of the compounds was put in a Petri dish, and the Petri dish was left in a thermo-hygrostat maintaining 25° C. and 60% RH with an opened state. The moisture content with respect to time was measured using a Karl Fisher apparatus and recorded. By measuring the change of the moisture content with respect to time under the above-described conditions, the stability of the dihydrate and that of the anhydride were compared. The results are illustrated in the following Table 1 and FIG. 1.

[2] = Stability of crystalline vs amorphous compound by change of XRD diffraction pattern (with moisture content); format: physicochemical; details: for Change of XRD diffraction pattern with respect to time (in words): X-ray diffraction analysis
Description: For comparing the stability of the crystalline compound of Example 1 according to the present invention and the amorphous compound of Comparative Example 2, the following experiment was performed.
The stability of each of the crystalline compound of Example 1 according to the present invention and the amorphous compound of Comparative Example 2 was measured by measuring the change of a diffraction pattern through X-ray diffraction analysis (XRD).
For the amorphous compound of Comparative Example 2, accurate and specific XRD pattern of the amorphous type was not shown, however amorphous 10-ethoxy-8-(morpholinomethyl)-1,2,3,4-tetrahydrobenzo[h][1,6]naphthyridine-5(6H)-on dichloride obtained after freeze drying absorbs surrounding moisture during performing the XRD, thereby increasing the crystallinity and showing XRD peaks.
Meanwhile, the moisture content of the compound of Comparative Example 2 was 0.4% immediately after drying, and was increased to 5.2% after measuring XRD.

| Structure (SMILES) | Change of the moisture content with respect to time (in words) ([1]; dihydrate) | Moisture content ([1]; 30 min, dihydrate) [%] | Moisture content ([1]; 1 h, dihydrate) [%] | Moisture content ([1]; 2 h, dihydrate) [%] | Moisture content ([1]; 1 day, dihydrate) [%] | Moisture content ([1]; 2 days, dihydrate) [%] | Moisture content ([1]; initial state, dihydrate) [%] | Change of XRD diffraction pattern with respect to time (in words) [2] | Moisture content ([2]; after measuring XRD) [%] | Moisture content ([2]; immediately after drying) [%] | Change of the moisture content with respect to time (in words) [1] | Moisture content ([1]; 30 min) [%] | Moisture content ([1]; 1 h) [%] | Moisture content ([1]; 2 h) [%] | Moisture content ([1]; 1 day) [%] | Moisture content ([1]; 2 days) [%] | Moisture content ([1]; initial state) [%] |
| --- | --- | --- | --- | --- | --- | --- | --- | --- | --- | --- | --- | --- | --- | --- | --- | --- | --- |
| CCOc1cc(CN2CCOCC2)cc2[nH]c(=O)c3c(c12)NCCC3 [Example 1, 10-ethoxy-8-(morpholinomethyl)-1,2,3,4-tetrahydrobenzo[h][1,6]naphthyridine-5(6H)-on dichloride dihydrate] | constant | 8.75 | 8.80 | 8.79 | 8.77 | 8.81 | 8.77 | constant data without change of the XRD diffraction pattern | – | – | – | – | – | – | – | – | – |
| CCOc1cc(CN2CCOCC2)cc2[nH]c(=O)c3c(c12)NCCC3.Cl.Cl [Comparative Example 2, 10-ethoxy-8-(morpholinomethyl)-1,2,3,4-tetrahydrobenzo[h][1,6]naphthyridine-5(6H)-on dichloride] | – | – | – | – | – | – | – | crystallinity thereof is increased | 5.2 | 0.4 | – | – | – | – | – | – | – |
| CCOc1cc(CN2CCOCC2)cc2[nH]c(=O)c3c(c12)NCCC3 [Comparative Example 1, 10-ethoxy-8-(morpholinomethyl)-1,2,3,4-tetrahydrobenzo[h][1,6]naphthyridine-5(6H)-on dichloride anhydride] | – | – | – | – | – | – | – | – | – | – | increased within 30 minutes from the initial state | 9.70 | 10.18 | 9.79 | 9.72 | 9.86 | 0.40 |

Source: patent publication US9522911B2, “Crystalline forms of tricyclic compound acid salt or hydrate thereof, and method for making thereof” (Jeil Pharmaceutical Co., Ltd., priority 2012, dated 2016)
